According to ChEMBL document CHEMBL1144434, “Structure-activity relationships within a series of caspase inhibitors. Part 2: Heterocyclic warheads” (Bioorg Med Chem Lett, 2005):
pIC50: −log10 of the molar value.

Experiments:
Caspase-3 (Homo sapiens) = target: T1, Caspase-3 (Homo sapiens) (UniProt P42574); assay: Binding affinity against Caspase-3
T1 sequence (whole entry): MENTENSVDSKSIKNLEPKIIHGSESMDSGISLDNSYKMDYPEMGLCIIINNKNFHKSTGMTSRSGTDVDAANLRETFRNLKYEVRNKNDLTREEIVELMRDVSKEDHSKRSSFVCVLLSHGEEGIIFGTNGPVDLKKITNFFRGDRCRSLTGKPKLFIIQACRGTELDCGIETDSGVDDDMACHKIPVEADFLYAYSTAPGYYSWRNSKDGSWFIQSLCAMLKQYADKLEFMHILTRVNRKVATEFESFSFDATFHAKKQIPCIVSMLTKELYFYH

Caspase-8 (Homo sapiens) = Caspase-8 (Homo sapiens) (UniProt Q14790); assay: Binding affinity against Caspase-8
Caspase-6 (Homo sapiens) [1] = target: T2, Caspase-6 (Homo sapiens) (UniProt P55212); assay: Reversible inhibition against Caspase-6
T2 sequence (whole entry): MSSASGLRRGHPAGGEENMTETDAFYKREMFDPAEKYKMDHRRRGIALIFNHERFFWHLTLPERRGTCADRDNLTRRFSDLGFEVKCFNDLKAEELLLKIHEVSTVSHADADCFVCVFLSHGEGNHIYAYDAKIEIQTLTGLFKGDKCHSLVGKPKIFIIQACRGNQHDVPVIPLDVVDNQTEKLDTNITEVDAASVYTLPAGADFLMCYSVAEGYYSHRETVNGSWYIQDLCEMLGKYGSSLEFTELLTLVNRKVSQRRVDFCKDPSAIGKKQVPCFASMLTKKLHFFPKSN

Caspase-1 (Mus musculus) = target: T3, Caspase-1 (Mus musculus) (UniProt P29452); assay: Binding affinity against mouse Caspase-1
T3 sequence (whole entry): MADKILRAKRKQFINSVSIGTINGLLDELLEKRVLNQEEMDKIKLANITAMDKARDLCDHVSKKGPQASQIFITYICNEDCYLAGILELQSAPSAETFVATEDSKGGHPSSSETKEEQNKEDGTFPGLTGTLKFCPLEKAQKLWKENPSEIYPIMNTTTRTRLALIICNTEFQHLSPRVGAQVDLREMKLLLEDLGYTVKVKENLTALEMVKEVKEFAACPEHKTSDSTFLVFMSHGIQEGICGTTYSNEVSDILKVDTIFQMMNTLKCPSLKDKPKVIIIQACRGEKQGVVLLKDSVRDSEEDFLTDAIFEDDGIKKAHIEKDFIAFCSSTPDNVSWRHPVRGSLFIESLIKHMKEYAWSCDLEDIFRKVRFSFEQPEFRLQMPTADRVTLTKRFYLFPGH

Jurkat = assay: Inhibitory concentration for cellular activity in jurkat assay; assay type: functional, cell-based; details: Homo sapiens
Caspase-6 (Homo sapiens) [2] = target: T2, Caspase-6 (Homo sapiens); assay: Binding affinity against Caspase-6

Sequence of Caspase-8 (Homo sapiens) (Q14790 217-374 limits assumed): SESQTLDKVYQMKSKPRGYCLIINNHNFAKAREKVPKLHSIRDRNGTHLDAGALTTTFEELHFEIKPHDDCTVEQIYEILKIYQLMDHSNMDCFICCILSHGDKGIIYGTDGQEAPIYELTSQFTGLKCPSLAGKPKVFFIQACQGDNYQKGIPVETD
Sequence of Caspase-8 (Homo sapiens) (Q14790 385-479 limits assumed): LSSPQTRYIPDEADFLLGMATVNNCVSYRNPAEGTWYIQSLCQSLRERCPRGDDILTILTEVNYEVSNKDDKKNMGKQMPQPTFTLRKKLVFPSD

SMILES	k3/ki (Caspase-3 (Homo sapiens))	k3/ki (Caspase-8 (Homo sapiens))	k3/ki (Caspase-6 (Homo sapiens) [1])	k3/ki (Caspase-1 (Mus musculus))	pIC50 (Jurkat)	k3/ki (Caspase-6 (Homo sapiens) [2])
CCOC(=O)c1c(C)noc1OCC(=O)[C@H](CC(=O)O)NC(=O)[C@@H](NC(=O)COc1cccc2ccccc12)C(C)C	5670 1/m/s	1140 1/m/s	0 1/m/s	1440 1/m/s	< 3.70	–
CC(C)[C@H](NC(=O)COc1cccc2ccccc12)C(=O)N[C@@H](CC(=O)O)C(=O)CSc1nccc(C(F)(F)F)n1	0 1/m/s	0 1/m/s	–	0 1/m/s	< 3.70	0 1/m/s
CC(C)[C@H](NC(=O)COc1cccc2ccccc12)C(=O)N[C@@H](CC(=O)O)C(=O)COc1nncc(Cl)c1Cl	1760 1/m/s	0 1/m/s	–	152 1/m/s	< 3.70	8 1/m/s
CC(C)[C@H](NC(=O)COc1cccc2ccccc12)C(=O)N[C@@H](CC(=O)O)C(=O)CSc1nc(-c2ccccc2)no1	38100 1/m/s	3060 1/m/s	–	1190 1/m/s	3.99	975 1/m/s

Second part, the compound after the results:

k3/ki (Caspase-3 (Homo sapiens))	k3/ki (Caspase-8 (Homo sapiens))	k3/ki (Caspase-6 (Homo sapiens) [1])	k3/ki (Caspase-1 (Mus musculus))	pIC50 (Jurkat)	k3/ki (Caspase-6 (Homo sapiens) [2])	SMILES
19200 1/m/s	0 1/m/s	–	400 1/m/s	3.82	224 1/m/s	CC(C)[C@H](NC(=O)COc1cccc2ccccc12)C(=O)N[C@@H](CC(=O)O)C(=O)CSc1nnnn1-c1ccccc1
2730 1/m/s	0 1/m/s	–	217 1/m/s	< 3.70	0 1/m/s	CC(C)[C@H](NC(=O)COc1cccc2ccccc12)C(=O)N[C@@H](CC(=O)O)C(=O)CSc1nc(-c2ccccc2)cs1
